{"source": "patent US10220029B2", "about": "“Pharmaceutical composition comprising glutarimide derivatives and use thereof in the treatment of eosinophilic diseases” (OBSCHESTVO S ORGANICHENNOI OTVETSTVENNOSTIYU …, priority 2013, dated 2019)", "key": {"[1]": {"system": "model of sephadex-induced eosinophilic lung inflammation in rats", "experiment": "Content of cell elements in BAL in the model of sephadex-induced eosinophilic lung inflammation in rats", "format": "in vivo, male Wistar rats", "conditions": "Table 8; 0.5 mg/kg by inhalation, four times (reference preparation); BAL 48 hours after sephadex; n = 10", "protocol": "The model of sephadex-induced eosinophilic lung inflammation in rats was realized by a standard method [Evaldsson C, Rydén I, Uppugunduri S. Isomaltitol exacerbates neutrophilia but reduces eosinophilia: new insights into the sephadex model of lung inflammation//Int Arch Allergy Immunol. 2011; 154(4):286-94]. Sephadex G-200 (Pharmacia, Sweden) was administered one time by inhalation to male Wistar rats at a dose of 5 mg/kg. The studied compounds were administered to the animals by the intragastric route four times: 24 hours and 1 hour before and 24 hours and 45 hours after administration of sephadex. The reference preparation, budesonide, was administered according to the same scheme, by inhalation at a dose of 0.5 mg/kg. Bronchoalveolar lavage was taken 48 hours after the inhalation of sephadex, and the total lymphocyte count and leukocyte formula in the lavage were determined. The number of rats in a group was 7 to 10."}, "[2]": {"system": "model of bronchial asthma in guinea pigs", "experiment": "Content of cell elements in BAL in the model of bronchial asthma in guinea pigs", "format": "in vivo, guinea pig", "protocol": "(§1) Bronchial asthma in guinea pigs was induced by a standard method [Ricciardolo F L, Nijkamp F, De Rose V, Folkerts G. The guinea pig as an animal model for asthma// Current Drug Targets. 2008 June; 9(6):452-65]. The animals were immunized by one parenteral administration of 0.5 mL of a solution comprising 100 μg/mL ovalbumin (Sigma) and 100 mg/mL aluminium hydroxide. Intact animals received a physiological saline solution in an amount of 0.5 mL.\n(§2) On days 29, 30 and 31, hyperactivity of the respiratory airways was provoked by inhalation administration of ovalbumin in ascending concentrations of 0.1, 0.3, and 0.5 mg/mL on days 1, 2, and 3 of the provocation, respectively. The inhalation lasted 5 minutes or until asphyxia symptoms became apparent (fall to one side). On day 32, the animals received a challenging dose of ovalbumin (1 mg/mL) for 5 minutes, while assessing a bronchospastic reaction.\n(§3) The studied compounds were administered to the animals once daily every day for 6 or 10 days; the administration was terminated two days before the administration of the challenging dose of antigen.\n(§4) The bronchoalveolar lavage (BAL) and cardiac cavity blood were derived from the animals 24 hours after administration of the challenging dose. The BAL was collected under anesthesia by lavaging the lungs with 5 mL of a physiological saline solution heated to 37° C. through the trachea, using a syringe dosing device.\nThe absolute number of cell elements in 1 μL of the lavage (cytosis) was counted in the bronchoalveolar lavage, using the Goryaev camera. Then, the BAL was centrifuged at 200 g for 10 minutes. The residue was used to prepare swabs that were fixed in methanol and stained according to Romanovsky-Giemsa to count endopulmonary cytogram.\n(§5) The study comprised 3 experiments, wherein the first one was directed to the evaluation of the effect of claimed compounds 1-6 on the cell composition of the BAL, the second and the third experiments were aimed at evaluating the effect of compounds 1 and 2 on the cell composition of the BAL, the cell composition of the blood, and on the bronchospasm severity."}, "[3]": {"system": "model of bronchial asthma in guinea pigs", "experiment": "Severity of bronchospasm in the model of bronchial asthma in guinea pigs", "format": "in vivo, guinea pig", "conditions": "Experiment No. 2, 6 times, n = 8", "protocol": "as §1, §2, §3\nThe bronchospastic reaction was assessed by a change in the rate and depth of the respiratory movements and by the asphyxia symptom such as fall to one side. Spirogram was registered by laboratory experimental equipment (ADInstruments, Australia), using a base recording station (PowerLab 8sp.) and software LabCart. The registration was made using airflow sensors for laboratory animals and a spirograph with an integrated amplifier (ADInstruments).\nas §5"}, "[4]": {"system": "model of bronchial asthma in guinea pigs", "experiment": "Content of cell elements in the blood in the model of bronchial asthma in guinea pigs", "format": "in vivo, guinea pig", "conditions": "Table 6 Experiment No. 2, 6 times, n = 8", "protocol": "as §1, §2, §3, §4\nThe blood was analyzed with a hemocytometer to determine leykoformula.\nas §5"}, "[5]": {"conditions": "Table 4, 14 mg/kg, 10 times of administration, n = 9"}, "[6]": {"conditions": "Table 5 Experiment No. 2, 0.14 mg/kg, 6 times, n = 8"}, "[7]": {"conditions": "Table 5 Experiment No. 2, 1.4 mg/kg, 6 times, n = 8"}, "[8]": {"conditions": "Table 5 Experiment No. 2, 14 mg/kg, 6 times, n = 8"}}, "note": "Marks after values point to notes of the source that are not given here."}
{"smiles": "CCCC1O[C@@H]2C[C@H]3[C@@H]4CCC5=CC(=O)C=C[C@]5(C)[C@H]4[C@@H](O)C[C@]3(C)[C@]2(C(=O)CO)O1", "note": "(some centres unmarked) [Budesonide, budesonide, reference compound]", "values": [{"measurement": "Eosinophils, content of cell elements in 1 μL of BAL", "setting": "[1]", "result": "204 ± 84*& in 1 μL of BAL"}, {"measurement": "Leukocytes, content of cell elements in 1 μL of BAL", "setting": "[1]", "result": "1805 ± 318*& in 1 μL of BAL"}, {"measurement": "Lymphocytes, content of cell elements in 1 μL of BAL", "setting": "[1]", "result": "37 ± 10& in 1 μL of BAL"}, {"measurement": "Macrophages, content of cell elements in 1 μL of BAL", "setting": "[1]", "result": "1230 ± 205 in 1 μL of BAL"}, {"measurement": "Neutrophils, content of cell elements in 1 μL of BAL", "setting": "[1]", "result": "334 ± 119 in 1 μL of BAL"}]}
{"smiles": "O=C1CCCC(=O)N1CCc1ncc[nH]1", "note": "[Compound 2]", "values": [{"measurement": "Eosinophils in BAL", "setting": "[2]; [5]", "result": "1.30 ± 0.29*& 10^9/L"}, {"measurement": "Lymphocytes in BAL", "setting": "[2]; [5]", "result": "1.53 ± 0.50* 10^9/L"}, {"measurement": "Monocytes in BAL", "setting": "[2]; [5]", "result": "0.60 ± 0.14* 10^9/L"}, {"measurement": "Neutrophils in BAL", "setting": "[2]; [5]", "result": "1.05 ± 0.16*& 10^9/L"}, {"measurement": "Cytosis in BAL", "setting": "[2]; [6]", "result": "0.55 ± 0.09*& 10^9/L"}, {"measurement": "Eosinophils in BAL", "setting": "[2]; [6]", "result": "0.20 ± 0.03*& 10^9/L"}, {"measurement": "Lymphocytes in BAL", "setting": "[2]; [6]", "result": "0.07 ± 0.02& 10^9/L"}, {"measurement": "Monocytes in BAL", "setting": "[2]; [6]", "result": "0.24 ± 0.06*& 10^9/L"}, {"measurement": "Neutrophils in BAL", "setting": "[2]; [6]", "result": "0.03 ± 0.008*& 10^9/L"}, {"measurement": "Cytosis in BAL", "setting": "[2]; [7]", "result": "0.63 ± 0.09*& 10^9/L"}, {"measurement": "Eosinophils in BAL", "setting": "[2]; [7]", "result": "0.18 ± 0.02*& 10^9/L"}, {"measurement": "Lymphocytes in BAL", "setting": "[2]; [7]", "result": "0.06 ± 0.01& 10^9/L"}, {"measurement": "Monocytes in BAL", "setting": "[2]; [7]", "result": "0.29 ± 0.07* 10^9/L"}, {"measurement": "Neutrophils in BAL", "setting": "[2]; [7]", "result": "0.09 ± 0.002 10^9/L"}, {"measurement": "Cytosis in BAL", "setting": "[2]; [8]", "result": "0.56 ± 0.008*& 10^9/L"}, {"measurement": "Eosinophils in BAL", "setting": "[2]; [8]", "result": "0.21 ± 0.06*& 10^9/L"}, {"measurement": "Lymphocytes in BAL", "setting": "[2]; [8]", "result": "0.07 ± 0.009& 10^9/L"}, {"measurement": "Monocytes in BAL", "setting": "[2]; [8]", "result": "0.22 ± 0.05*& 10^9/L"}, {"measurement": "Neutrophils in BAL", "setting": "[2]; [8]", "result": "0.07 ± 0.002 10^9/L"}, {"measurement": "The number of animals with moderate bronchospasm (without acute phase, with subacute phase, with breath management)", "setting": "[3]; 0.14 mg/kg", "result": 1}, {"measurement": "The number of animals with moderate bronchospasm (without acute phase, with subacute phase, without breath management)", "setting": "[3]; 0.14 mg/kg", "result": 1}, {"measurement": "The number of animals with severe bronchospasm (in acute and subacute phase)", "setting": "[3]; 0.14 mg/kg", "result": 2}, {"measurement": "The number of animals without bronchospasm", "setting": "[3]; 0.14 mg/kg", "result": 4}, {"measurement": "The number of animals with moderate bronchospasm (without acute phase, with subacute phase, with breath management)", "setting": "[3]; 1.4 mg/kg", "result": 0}, {"measurement": "The number of animals with moderate bronchospasm (without acute phase, with subacute phase, without breath management)", "setting": "[3]; 1.4 mg/kg", "result": 3}, {"measurement": "The number of animals with severe bronchospasm (in acute and subacute phase)", "setting": "[3]; 1.4 mg/kg", "result": 1}, {"measurement": "The number of animals without bronchospasm", "setting": "[3]; 1.4 mg/kg", "result": 4}, {"measurement": "The number of animals with moderate bronchospasm (without acute phase, with subacute phase, with breath management)", "setting": "[3]; 14 mg/kg", "result": 1}, {"measurement": "The number of animals with moderate bronchospasm (without acute phase, with subacute phase, without breath management)", "setting": "[3]; 14 mg/kg", "result": 0}, {"measurement": "The number of animals with severe bronchospasm (in acute and subacute phase)", "setting": "[3]; 14 mg/kg", "result": 2}, {"measurement": "The number of animals without bronchospasm", "setting": "[3]; 14 mg/kg", "result": 5}, {"measurement": "Banded neutrophils in the blood", "setting": "[4]; 0.14 mg/kg", "result": "0.18 ± 0.04 10^9/L"}, {"measurement": "Basophils in the blood", "setting": "[4]; 0.14 mg/kg", "result": "0 ± 0 10^9/L"}, {"measurement": "Cytosis in the blood", "setting": "[4]; 0.14 mg/kg", "result": "7.80 ± 0.77*& 10^9/L"}, {"measurement": "Eosinophils in the blood", "setting": "[4]; 0.14 mg/kg", "result": "0.09 ± 0.03& 10^9/L"}, {"measurement": "Lymphocytes in the blood", "setting": "[4]; 0.14 mg/kg", "result": "3.95 ± 0.54& 10^9/L"}, {"measurement": "Monocytes in the blood", "setting": "[4]; 0.14 mg/kg", "result": "0.18 ± 0.06 10^9/L"}, {"measurement": "Segmented neutrophils in the blood", "setting": "[4]; 0.14 mg/kg", "result": "3.41 ± 0.41*& 10^9/L"}, {"measurement": "Banded neutrophils in the blood", "setting": "[4]; 1.4 mg/kg", "result": "0.21 ± 0.03 10^9/L"}, {"measurement": "Basophils in the blood", "setting": "[4]; 1.4 mg/kg", "result": "0 ± 0 10^9/L"}, {"measurement": "Cytosis in the blood", "setting": "[4]; 1.4 mg/kg", "result": "7.70 ± 0.40*& 10^9/L"}, {"measurement": "Eosinophils in the blood", "setting": "[4]; 1.4 mg/kg", "result": "0.1 ± 0.03& 10^9/L"}, {"measurement": "Lymphocytes in the blood", "setting": "[4]; 1.4 mg/kg", "result": "3.68 ± 0.25& 10^9/L"}, {"measurement": "Monocytes in the blood", "setting": "[4]; 1.4 mg/kg", "result": "0.18 ± 0.06 10^9/L"}, {"measurement": "Segmented neutrophils in the blood", "setting": "[4]; 1.4 mg/kg", "result": "3.53 ± 0.37*& 10^9/L"}, {"measurement": "Banded neutrophils in the blood", "setting": "[4]; 14 mg/kg", "result": "0.17 ± 0.04 10^9/L"}, {"measurement": "Basophils in the blood", "setting": "[4]; 14 mg/kg", "result": "0 ± 0 10^9/L"}, {"measurement": "Cytosis in the blood", "setting": "[4]; 14 mg/kg", "result": "6.93 ± 0.77& 10^9/L"}, {"measurement": "Eosinophils in the blood", "setting": "[4]; 14 mg/kg", "result": "0.1 ± 0.04& 10^9/L"}, {"measurement": "Lymphocytes in the blood", "setting": "[4]; 14 mg/kg", "result": "3.51 ± 0.41& 10^9/L"}, {"measurement": "Monocytes in the blood", "setting": "[4]; 14 mg/kg", "result": "0.24 ± 0.08 10^9/L"}, {"measurement": "Segmented neutrophils in the blood", "setting": "[4]; 14 mg/kg", "result": "2.9 ± 0.38& 10^9/L"}]}
{"smiles": "CC1(C)CC(=O)N(CCc2cnc[nH]2)C(=O)C1", "note": "[Compound 3]", "values": [{"measurement": "Eosinophils in BAL", "setting": "[2]; [5]", "result": "0.93 ± 0.31*& 10^9/L"}, {"measurement": "Lymphocytes in BAL", "setting": "[2]; [5]", "result": "0.72 ± 0.08* 10^9/L"}, {"measurement": "Monocytes in BAL", "setting": "[2]; [5]", "result": "0.71 ± 0.18& 10^9/L"}, {"measurement": "Neutrophils in BAL", "setting": "[2]; [5]", "result": "0.36 ± 0.08 10^9/L"}]}
{"smiles": "O=C1CCCC(=O)N1CCc1nc2ccccc2s1", "note": "[Compound 4, 1-(2-(1,3-benzothiazol-2-yl)ethyl)piperidine-2,6-dione]", "values": [{"measurement": "Eosinophils in BAL", "setting": "[2]; [5]", "result": "1.25 ± 0.34*& 10^9/L"}, {"measurement": "Lymphocytes in BAL", "setting": "[2]; [5]", "result": "0.81 ± 0.11* 10^9/L"}, {"measurement": "Monocytes in BAL", "setting": "[2]; [5]", "result": "0.85 ± 0.19& 10^9/L"}, {"measurement": "Neutrophils in BAL", "setting": "[2]; [5]", "result": "0.43 ± 0.12 10^9/L"}]}
